The record followed here is ChEMBL document CHEMBL1152382, “Synthesis of novel quinoxaline derivatives and its cytotoxic activities” (Bioorg Med Chem Lett, 2009).

Molecules are shown by their SMILES. Where only a bound is given, the exact number is not on record here.

The nature of this assay: Cytotoxicity against human HeLaS3 cells after 48 hrs by MTT assay. It counts as functional, cell-based. The following applies: HeLa S3, 48 h.
The term IC50 denotes the concentration that gives 50% inhibition. In turn, `O=C1Nc2ccccc2NC1Cc1ccccc1` (stereo not given) returned a half-inhibitory concentration (IC50) greater than 30 µM.
With `O=C1Nc2cc(OC(F)(F)F)ccc2N2CCCCC12` (stereo not given) the figure was greater than 30 µM.
For `CC(C)(C)C1Nc2ccccc2NC1=O` (stereo not given) the value was greater than 30 µM.
With `O=C1Nc2ccccc2N2Cc3ccccc3CC12` (stereo not given) the figure was greater than 30 µM; with `N#Cc1ccc2c(c1)N1CCCCC1C(=O)N2` (stereo not given), 7.6 µM.
`Cc1ccc2c(c1)N1CCCCC1C(=O)N2` (stereo not given) came in with an IC50 of 18.1 µM. This IC50 lies about 2.4-fold higher than the previous one.
As to `Cc1cnc2c(c1)N1CCCCC1C(=O)N2` (stereo not given), the IC50 was greater than 30 µM.
With `CCC(C)C1Nc2cc(Cl)ccc2NC1=O` (stereo not given) the figure was 17.2 µM.
As for `O=C1Nc2ccc(Cl)cc2N2CCCCC12` (stereo not given), the IC50 is 4.96 µM.
With `O=C1Nc2ccccc2NC12CCCCC2` the figure was greater than 30 µM; with `CC1(C)Nc2ccccc2NC1=O`, greater than 30 µM; with `O=C1Nc2cc([N+](=O)[O-])ccc2N2CCCCC12` (stereo not given), greater than 30 µM.
With `O=C1Nc2ccccc2N2CCCC12` (stereo not given) the figure was greater than 30 µM.
With `O=C1Nc2cccnc2N2CCCCC12` (stereo not given) the figure was greater than 30 µM; with `CC(C)C1Nc2ccccc2NC1=O` (stereo not given), 4.85 µM.
